According to patent publication US10988477B2 (Merck Patent GmbH, priority 2018, dated 2021):
Where a name gives a salt, the structure may show the parent alone. Read-outs that look alike come from different tables or passages of the source.

How the values were obtained:
GCN2 kinase = GCN2 kinase (Homo sapiens, UniProt Q9P2K8); assay: GCN2 enzyme inhibition assay (Transcreener ADP2 fluorescence polarization); type: biochemical; conditions: 280 μM ATP
In short: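 Kinase activity is followed as ADP formation, measured by fluorescence polarization, using 4 nM enzyme with 280 μM ATP and 200 μM (RS)7 peptide at pH 7.5 and 25 °C for 1 h. Values come from a non-linear tight-binding fit.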

[1] = target: intracellular GCN2 (phosphorylation of the GCN2 substrate eIF2α) (Homo sapiens, UniProt Q9P2K8); assay: GCN2 cellular inhibition assay (AlphaScreen SureFire P-eIF2α Ser51, borrelidin-treated U2OS cells); type: cell-based
In short: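 U2OS, overnight attach; cpd 4-fold serial dil. from 40 μM final; borrelidin 10 μM, 1 h 37 °C/5% CO2; lyse; AlphaScreen P-eIF2α Ser51 (acceptor 2 h, donor overnight, RT, dark); % inhib. vs borrelidin-only.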

[2] = compounds of Formula II, 4 nM GCN2 kinase
[3] = compounds of Formula II, biomarker assay, phosphorylated eIF2α Ser51 in borrelidin-treated U2OS cells
[4] = Enzyme activity for compounds of Formula IV, Ki(app), 25° C.
[5] = compounds of Formula IV, biomarker assay, phosphorylated eIF2α Ser51 in borrelidin-treated U2OS cells
[6] = compounds of Formula III, 4 nM GCN2 kinase
[7] = compounds of Formula III, U2OS cells, 10 μM borrelidin, 1 h, read-out: GCN2 Biomarker (IC50)

GCN2 kinase, sequence (Q9P2K8 whole entry): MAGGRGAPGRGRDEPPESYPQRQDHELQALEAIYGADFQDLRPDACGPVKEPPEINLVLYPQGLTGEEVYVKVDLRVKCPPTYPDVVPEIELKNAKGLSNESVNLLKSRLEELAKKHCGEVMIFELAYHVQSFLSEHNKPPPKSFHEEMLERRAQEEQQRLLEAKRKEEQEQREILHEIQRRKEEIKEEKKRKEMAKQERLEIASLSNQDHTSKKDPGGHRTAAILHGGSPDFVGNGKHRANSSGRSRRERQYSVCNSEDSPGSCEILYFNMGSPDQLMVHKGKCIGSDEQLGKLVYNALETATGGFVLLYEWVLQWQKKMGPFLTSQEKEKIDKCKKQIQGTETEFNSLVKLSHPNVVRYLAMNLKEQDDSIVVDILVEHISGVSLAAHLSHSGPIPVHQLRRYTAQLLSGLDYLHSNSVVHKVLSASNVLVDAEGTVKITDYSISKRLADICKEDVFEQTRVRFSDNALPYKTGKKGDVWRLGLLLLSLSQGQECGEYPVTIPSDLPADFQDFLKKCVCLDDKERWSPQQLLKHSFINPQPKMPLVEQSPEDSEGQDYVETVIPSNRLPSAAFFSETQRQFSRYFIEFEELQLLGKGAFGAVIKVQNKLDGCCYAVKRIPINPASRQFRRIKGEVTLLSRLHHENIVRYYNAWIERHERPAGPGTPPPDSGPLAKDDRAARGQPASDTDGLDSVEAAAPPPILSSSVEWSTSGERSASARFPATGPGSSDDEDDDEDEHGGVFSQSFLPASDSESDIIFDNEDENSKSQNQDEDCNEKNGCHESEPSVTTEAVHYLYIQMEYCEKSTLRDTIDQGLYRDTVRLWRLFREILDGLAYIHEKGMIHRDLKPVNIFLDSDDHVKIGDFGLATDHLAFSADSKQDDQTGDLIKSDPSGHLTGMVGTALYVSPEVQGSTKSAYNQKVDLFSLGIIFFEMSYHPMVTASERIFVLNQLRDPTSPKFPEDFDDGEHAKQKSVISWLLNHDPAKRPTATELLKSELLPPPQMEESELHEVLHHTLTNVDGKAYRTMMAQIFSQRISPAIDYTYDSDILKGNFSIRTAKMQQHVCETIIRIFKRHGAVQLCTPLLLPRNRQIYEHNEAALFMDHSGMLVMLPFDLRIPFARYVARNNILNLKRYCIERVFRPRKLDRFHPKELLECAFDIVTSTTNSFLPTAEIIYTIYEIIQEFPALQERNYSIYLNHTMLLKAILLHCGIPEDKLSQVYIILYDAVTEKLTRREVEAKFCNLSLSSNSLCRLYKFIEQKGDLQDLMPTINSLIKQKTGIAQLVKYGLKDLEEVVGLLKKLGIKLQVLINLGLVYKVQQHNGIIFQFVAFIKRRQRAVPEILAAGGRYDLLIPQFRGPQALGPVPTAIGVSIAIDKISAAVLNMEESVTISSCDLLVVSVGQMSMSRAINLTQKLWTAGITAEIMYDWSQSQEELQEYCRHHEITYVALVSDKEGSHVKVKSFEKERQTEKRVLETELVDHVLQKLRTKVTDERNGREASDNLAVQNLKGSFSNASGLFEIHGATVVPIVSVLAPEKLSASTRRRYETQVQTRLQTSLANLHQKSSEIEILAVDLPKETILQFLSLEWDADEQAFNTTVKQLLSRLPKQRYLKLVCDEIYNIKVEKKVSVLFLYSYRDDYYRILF
intracellular GCN2 (phosphorylation of the GCN2 substrate eIF2α), sequence (Q9P2K8 whole entry): as above

## CC1C(CNS(C)(=O)=O)N(CC2CC2)CCN1c1cc(-c2cnc3ccc(C(F)F)nn23)ncn1 (stereo not shown) [II-495, N-((1-(Cyclopropylmethyl)-4-(6-(6-(difluoromethyl)imidazo[1,2-b]pyridazin-3-yl)pyrimidin-4-yl)-3-methylpiperazin-2-yl)methyl)methanesulfonamide]
GCN2 kinase; [2]
  Ki: < 10 nM
[1]; [3]
  IC50: < 500 nM

## OCCn1cc(-c2cc(-c3cnc4ccc(C(F)F)nn34)ccn2)cn1 [II-113, 2-(4-(4-(6-(Difluoromethyl)imidazo[1,2-b]pyridazin-3-yl)pyridin-2-yl)-1H-pyrazol-1-yl)ethanol]
GCN2 kinase; [2]
  Ki: 10 to 1000 nM
[1]; [3]
  IC50: 500 to 5000 nM

## CN1CCN(c2cc(-c3cnc4ccc(C(F)F)nn34)ncn2)C[C@H]1C1(O)CC1 [II-459, (S)-1-(4-(6-(6-(Difluoromethyl)imidazo[1,2-b]pyridazin-3-yl)pyrimidin-4-yl)-1-methylpiperazin-2-yl)cyclopropan-1-ol]
GCN2 kinase; [2]
  Ki: > 1000 nM
[1]; [3]
  IC50: > 5000 nM

## CS(=O)(=O)NCC1CN(c2cc(-c3cnc4ccc(C(F)F)nn34)ccn2)CCN1C1COC1 (stereo not shown) [II-81, N-((4-(4-(6-(Difluoromethyl)imidazo[1,2-b]pyridazin-3-yl)pyridin-2-yl)-1-(oxetan-3-yl)piperazin-2-yl)methyl)methanesulfonamide]
GCN2 kinase; [2]
  Ki: 10 to 1000 nM
[1]; [3]
  IC50: > 5000 nM

## CNS(=O)(=O)NCC1CCCN(c2cc(-c3cnc4ccc(C(F)F)nn34)ncn2)C1 (stereo not shown) [II-385, 1-((1-(6-(6-(Difluoromethyl)imidazo[1,2-b]pyridazin-3-yl)pyrimidin-4-yl)piperidin-3-yl)methyl)-3-methylsulfuric diamide]
GCN2 kinase; [2]
  Ki: < 10 nM
[1]; [3]
  IC50: < 500 nM

## C[C@H]1CN(c2ccnc(-c3cnc4cnc(C(F)(F)F)cn34)n2)C[C@@H](CNS(C)(=O)=O)C1(F)F [IV-17, N-(((3S,5S)-4,4-Difluoro-5-methyl-1-(2-(6-(trifluoromethyl)imidazo[1,2-a]pyrazin-3-yl)pyrimidin-4-yl)piperidin-3-yl)methyl)methanesulfonamide]
GCN2 kinase; [4]
  Ki: 100 to 1000 nM
[1]; [5]
  IC50: > 5000 nM

## CS(=O)(=O)NC[C@@H]1CN(c2cc(-c3cnn4ccc(C(F)F)nc34)ncn2)CCO1 [III-4, N-[[(2S)-4-[6-[5-(Difluoromethyl)pyrazolo[1,5-a]pyrimidin-3-yl]pyrimidin-4-yl]morpholin-2-yl]methyl]methanesulfonamide]
GCN2 kinase; [6]
  Ki: < 10 nM
[1]; [7]
  IC50: < 500 nM

## CC1C(c2cn[nH]c2)CCCN1c1ccnc(-c2cnc3cnc(C(F)(F)F)cn23)n1 (stereo not shown) [IV-388, 3-(4-(2-Methyl-3-(1H-pyrazol-4-yl)piperidin-1-yl)pyrimidin-2-yl)-6-(trifluoromethyl)imidazo[1,2-a]pyrazine]
GCN2 kinase; [4]
  Ki: < 10 nM
[1]; [5]
  IC50: < 500 nM

## CC1CCC(N=S(C)(C)=O)CN1c1cc(-c2cnc3ccc(C(F)F)nn23)ncn1 (stereo not shown) [II-696, [1-[6-[6-(Difluoromethyl)imidazo[1,2-b]pyridazin-3-yl]pyrimidin-4-yl]-6-methyl-3-piperidyl]imino-dimethyl-λ^6-sulfanone]
GCN2 kinase; [2]
  Ki: 10 to 1000 nM
[1]; [3]
  IC50: > 5000 nM

## CC1CN(c2ccnc(-c3cnc4cnc(Cl)cn34)n2)C(C)C(c2c[nH]cn2)N1 (stereo not shown) [IV-349, 3-(4-(3-(1H-Imidazol-4-yl)-2,5-dimethylpiperazin-1-yl)pyrimidin-2-yl)-6-chloroimidazo[1,2-a]pyrazine]
GCN2 kinase; [4]
  Ki: 10 to 100 nM
[1]; [5]
  IC50: 500 to 5000 nM

## FC(F)(F)c1cn2c(-c3nccc(N4CCC(Cc5cn[nH]c5)C4)n3)cnc2cn1 (stereo not shown) [IV-635, 3-(4-(3-((1H-Pyrazol-4-yl)methyl)pyrrolidin-1-yl)pyrimidin-2-yl)-6-(trifluoromethyl)imidazo[1,2-a]pyrazine]
GCN2 kinase; [4]
  Ki: 10 to 100 nM
[1]; [5]
  IC50: 500 to 5000 nM

## NS(=O)(=O)C1CCCN(c2ccnc(-c3cnc4cnc(C(F)F)cn34)n2)C1 (stereo not shown) [IV-56, 1-(2-(6-(Difluoromethyl)imidazo[1,2-a]pyrazin-3-yl)pyrimidin-4-yl)piperidine-3-sulfonamide]
GCN2 kinase; [4]
  Ki: 100 to 1000 nM
[1]; [5]
  IC50: > 5000 nM

## CC1C(NS(C)(=O)=O)CCCN1c1cc(-c2cnc3ccc(C(F)F)nn23)ncn1 (single isomer, unassigned) [II-377, N-[1-[6-[6-(Difluoromethyl)imidazo[1,2-b]pyridazin-3-yl]pyrimidin-4-yl]-2-methyl-3-piperidyl]methanesulfonamide]
GCN2 kinase; [2]
  Ki: 10 to 1000 nM
[1]; [3]
  IC50: < 500 nM

## CS(=O)(=O)NC[C@@H]1CN(c2cc(-c3cnn4ccc(C(F)F)nc34)ccn2)CCO1 [III-6, N-[[(2S)-4-[4-[5-(Difluoromethyl)pyrazolo[1,5-a]pyrimidin-3-yl]-2-pyridyl]morpholin-2-yl]methyl]methanesulfonamide]
GCN2 kinase; [6]
  Ki: < 10 nM
[1]; [7]
  IC50: 500 to 5000 nM

## Fc1n[nH]cc1C1CCCN(c2ccnc(-c3cnc4cnc(C(F)(F)F)cn34)n2)C1 (single isomer, unassigned) [IV-491, 3-(4-(3-(3-Fluoro-1H-pyrazol-4-yl)piperidin-1-yl)pyrimidin-2-yl)-6-(trifluoromethyl)imidazo[1,2-a]pyrazine]
GCN2 kinase; [4]
  Ki: < 10 nM
[1]; [5]
  IC50: < 500 nM

## CS(=O)(=O)NC1CCN(c2cc(-c3cnc4ccc(C(F)F)nn34)ncn2)C1 (stereo not shown) [II-199, N-(1-(6-(6-(Difluoromethyl)imidazo[1,2-b]pyridazin-3-yl)pyrimidin-4-yl)pyrrolidin-3-yl)methanesulfonamide]
GCN2 kinase; [2]
  Ki: 10 to 1000 nM
[1]; [3]
  IC50: > 5000 nM

## CS(=O)(=O)NCC1CC(O)CN(c2cc(-c3cnc4ccc(C(F)F)nn34)ccn2)C1 (stereo not shown) [II-39, N-((1-(4-(6-(Difluoromethyl)imidazo[1,2-b]pyridazin-3-yl)pyridin-2-yl)-5-hydroxypiperidin-3-yl)methyl)methanesulfonamide]
GCN2 kinase; [2]
  Ki: 10 to 1000 nM
[1]; [3]
  IC50: 500 to 5000 nM

## COc1ccc2ncc(-c3ccnc(N4CCN(C(C)=O)CC4)c3)n2n1 [II-204, 1-(4-(4-(6-Methoxyimidazo[1,2-b]pyridazin-3-yl)pyridin-2-yl)piperazin-1-yl)ethan-1-one trifluoroacetate]
GCN2 kinase; [2]
  Ki: 10 to 1000 nM
[1]; [3]
  IC50: > 5000 nM

## OC[C@@H]1CN(c2cc(-c3cnc4ccc(C(F)F)nn34)ccn2)CCN1 [II-169, (S)-(4-(4-(6-(Difluoromethyl)imidazo[1,2-b]pyridazin-3-yl)pyridin-2-yl)piperazin-2-yl)methanol]
GCN2 kinase; [2]
  Ki: 10 to 1000 nM
[1]; [3]
  IC50: > 5000 nM

## CS(=O)(=O)NC[C@H]1CCCN(c2cc(-c3cnc4ccc(C(F)F)nn34)cc(O)n2)C1 [II-111, (S)—N-((1-(4-(6-(Difluoromethyl)imidazo[1,2-b]pyridazin-3-yl)-6-oxo-1,6-dihydropyridin-2-yl)piperidin-3-yl)methyl)methanesulfonamide]
GCN2 kinase; [2]
  Ki: < 10 nM
[1]; [3]
  IC50: 500 to 5000 nM

## NS(=O)(=O)N[C@@H]1CCCN(c2ccnc(-c3cnc4cnc(C(F)F)cn34)n2)C1 [IV-181, 6-(Difluoromethyl)-3-[4-[(3R)-3-(sulfamoylamino)-1-piperidyl]pyrimidin-2-yl]imidazo[1,2-a]pyrazine]
GCN2 kinase; [4]
  Ki: 100 to 1000 nM
[1]; [5]
  IC50: > 5000 nM

## O=C(C1CCCN(c2ccnc(-c3cnc4cnc(C(F)F)cn34)n2)C1)N1CCNCC1 (stereo not shown) [IV-139, (1-(2-(6-(Difluoromethyl)imidazo[1,2-a]pyrazin-3-yl)pyrimidin-4-yl)piperidin-3-yl)(piperazin-1-yl)methanone]
GCN2 kinase; [4]
  Ki: 100 to 1000 nM
[1]; [5]
  IC50: > 5000 nM

## CS(=O)(=O)NCC1CN(c2cc(-c3cnc4ccc(C(F)F)nn34)ncn2)CC2(CC2)O1 (stereo not shown) [II-384, N-((7-(6-(6-(Difluoromethyl)imidazo[1,2-b]pyridazin-3-yl)pyrimidin-4-yl)-4-oxa-7-azaspiro[2.5]octan-5-yl)methyl)methanesulfonamide]
GCN2 kinase; [2]
  Ki: < 10 nM
[1]; [3]
  IC50: < 500 nM

## CC1CN(c2ccnc(-c3cnc4cnc(C(F)(F)F)cn34)n2)CC(c2cn[nH]c2)N1 (stereo not shown) [IV-189, 3-(4-(3-Methyl-5-(1H-pyrazol-4-yl)piperazin-1-yl)pyrimidin-2-yl)-6-(trifluoromethyl)imidazo[1,2-a]pyrazine]
GCN2 kinase; [4]
  Ki: 10 to 100 nM
[1]; [5]
  IC50: 500 to 5000 nM

## CC1CN(c2ccnc(-c3cnc4cnc(C(F)(F)F)cn34)n2)CC(c2cn[nH]c2)O1 (stereo not shown) [IV-10, 2-Methyl-6-(1H-pyrazol-4-yl)-4-(2-(6-(trifluoromethyl)imidazo[1,2-a]pyrazin-3-yl)pyrimidin-4-yl)morpholine]
GCN2 kinase; [4]
  Ki: < 10 nM
[1]; [5]
  IC50: < 500 nM

## C[C@H]1[C@@H](c2cn[nH]c2)NCCN1c1ccnc(-c2cnc3cnc(C4CC4)cn23)n1 (racemic) [IV-411, Cis-6-Cyclopropyl-3-(4-(2-methyl-3-(1H-pyrazol-4-yl)piperazin-1-yl)pyrimidin-2-yl)imidazo[1,2-a]pyrazine]
GCN2 kinase; [4]
  Ki: 10 to 100 nM
[1]; [5]
  IC50: 500 to 5000 nM

## C[C@H]1CN(c2ccnc(-c3cnc4cnc(C(F)(F)F)cn34)n2)[C@@H](C)[C@@H](c2cn[nH]c2)N1 [IV-224, 3-(4-((2S,3R,5S)-2,5-dimethyl-3-(1H-pyrazol-4-yl)piperazin-1-yl)pyrimidin-2-yl)-6-(trifluoromethyl)imidazo[1,2-a]pyrazine]
GCN2 kinase; [4]
  Ki: < 10 nM
[1]; [5]
  IC50: < 500 nM

## NS(=O)(=O)N1CC2CCN(c3cc(-c4cnc5ccc(C(F)F)nn45)ncn3)C2C1 (stereo not shown) [II-286, 1-(6-(6-(Difluoromethyl)imidazo[1,2-b]pyridazin-3-yl)pyrimidin-4-yl)hexahydropyrrolo[3,4-b]pyrrole-5(1H)-sulfonamide]
GCN2 kinase; [2]
  Ki: 10 to 1000 nM
[1]; [3]
  IC50: > 5000 nM

## FC(F)c1ccc2ncc(-c3cc(N4CCOCC4)ncn3)n2n1 [II-251, 4-(6-(6-(Difluoromethyl)imidazo[1,2-b]pyridazin-3-yl)pyrimidin-4-yl)morpholine]
GCN2 kinase; [2]
  Ki: 10 to 1000 nM
[1]; [3]
  IC50: > 5000 nM
